According to patent US12351580B2, “NLRP3 modulators” (Innate Tumor Immunity, Inc., priority 2017, dated 2025):
Structures can show the parent of a compound that is named as a salt.

target: T1, TLR7 (Homo sapiens, UniProt Q9NYK1); assay: In vitro human TLR7 binding reporter assay (HEK-Blue, NF-kB/AP1-inducible SEAP); assay type: cell-based; settings: activity range symbols
T1 construct: host or cells: HEK-Blue cells (human HEK) co-expressing TLR7 and an NF-kB/AP1-inducible SEAP reporter
T1 sequence (Q9NYK1 27-1049): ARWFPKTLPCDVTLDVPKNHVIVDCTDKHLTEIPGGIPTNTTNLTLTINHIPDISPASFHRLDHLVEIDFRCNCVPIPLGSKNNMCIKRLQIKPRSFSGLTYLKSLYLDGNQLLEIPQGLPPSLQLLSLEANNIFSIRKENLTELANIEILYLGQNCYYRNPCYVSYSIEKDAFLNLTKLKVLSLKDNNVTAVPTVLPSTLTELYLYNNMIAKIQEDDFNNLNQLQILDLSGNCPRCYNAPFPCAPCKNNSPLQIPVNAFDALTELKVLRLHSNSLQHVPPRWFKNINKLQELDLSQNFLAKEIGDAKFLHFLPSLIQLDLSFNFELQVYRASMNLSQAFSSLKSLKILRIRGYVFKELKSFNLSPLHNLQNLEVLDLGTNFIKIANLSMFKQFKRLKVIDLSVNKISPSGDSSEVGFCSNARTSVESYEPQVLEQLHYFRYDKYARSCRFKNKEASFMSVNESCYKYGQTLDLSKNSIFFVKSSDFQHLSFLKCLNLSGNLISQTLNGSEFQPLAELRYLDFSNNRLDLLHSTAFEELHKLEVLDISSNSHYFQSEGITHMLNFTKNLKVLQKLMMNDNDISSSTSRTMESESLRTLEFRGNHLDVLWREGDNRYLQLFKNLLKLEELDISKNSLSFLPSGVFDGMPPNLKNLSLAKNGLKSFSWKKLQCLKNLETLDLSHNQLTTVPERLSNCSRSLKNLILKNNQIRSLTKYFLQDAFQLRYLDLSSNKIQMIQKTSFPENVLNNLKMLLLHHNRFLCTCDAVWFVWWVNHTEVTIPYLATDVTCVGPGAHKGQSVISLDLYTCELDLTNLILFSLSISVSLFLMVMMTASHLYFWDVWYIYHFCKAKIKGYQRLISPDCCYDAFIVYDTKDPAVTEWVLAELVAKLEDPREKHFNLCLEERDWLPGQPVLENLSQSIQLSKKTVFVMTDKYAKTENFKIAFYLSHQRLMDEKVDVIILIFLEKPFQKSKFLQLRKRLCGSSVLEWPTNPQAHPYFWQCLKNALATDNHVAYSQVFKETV
How it was run: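 Reporter cells are plated at 15,000 per well and rested 24 h. Next day, test compounds or DMSO are dispensed, followed by 18 h incubation at 37 °C, 5% CO2.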

Row | Compound | EC50 [µM]
1 | CC(=O)N(C)Cc1nc2c(N)nc3cc(-n4cccn4)ccc3c2[nH]1 [Compound 102, N-((4-Amino-7-(1H-pyrazol-1-yl)-1H-imidazo[4,5-c]quinolin-2-yl)methyl)-N-methylacetamide] | > 100
2 | CN(Cc1nc2c(N)nc3cc(-n4cccn4)ccc3c2[nH]1)S(C)(=O)=O [Compound 119] | > 100
3 | CN(Cc1nc2c(N)nc3cc(-c4cc[nH]n4)ccc3c2[nH]1)C(=O)C1CC1 [Compound 120] | > 100
4 | CCN(Cc1nc2c(N)nc3cc(-c4cc[nH]n4)ccc3c2n1C)C(C)=O [Compound 121] | > 100
5 | CCN(Cc1nc2c(N)nc3cc(-n4cccn4)ccc3c2[nH]1)C(N)=O [Compound 130] | > 100
6 | NCc1nc2c(N)nc3cc(-c4cc[nH]n4)ccc3c2[nH]1 [Compound 131] | > 100
7 | CCN(Cc1nc2c(N)nc3cc(-n4nccn4)ccc3c2[nH]1)C(C)=O [Compound 132] | > 100
8 | CC(c1nc2c(N)nc3cc(-c4cccnc4)ccc3c2[nH]1)N1CCCC1=O (stereo not shown) [Compound 138] | 20 to 100
9 | Nc1nc2ccc(Cl)cc2c2[nH]c(CN3CCCC3=O)nc12 [Compound 141] | > 100
10 | CC(C)(C)OC(=O)NCc1nc2c(N)nc3cc(-c4cc[nH]n4)ccc3c2[nH]1 [Compound 142] | > 100
11 | Nc1nc2cc(Cl)ccc2c2[nH]c(CN3CCCC3=O)nc12 [Compound 143] | 20 to 100
12 | Nc1nc2cc(-c3ccc(Cl)nc3)ccc2c2[nH]c(CN3CCCC3=O)nc12 [Compound 153] | 20 to 100
13 | CCNCc1nc2c(N)nc3cc(OC)ccc3c2[nH]1 [Compound 154] | > 100
14 | CCN(Cc1nc2c(N)nc3cc(-c4ncc[nH]4)ccc3c2[nH]1)C(=O)OC(C)(C)C [Compound 155] | > 100
15 | Nc1nc2cc(-n3ncc4ccccc43)ccc2c2[nH]c(CN3CCCC3=O)nc12 [Compound 157] | 20 to 100
16 | CCN(Cc1nc2c(N)nc3cc(OC)ccc3c2[nH]1)C(C)=O [Compound 158, N-((4-Amino-7-methoxy-1H-imidazo[4,5-c]quinolin-2-yl)methyl)-N-ethylacetamide] | > 100
17 | CCN(Cc1nc2c(N)nc3cc(Cl)c(Cl)cc3c2[nH]1)C(C)=O [Compound 159] | > 100
18 | CCNCc1nc2c(N)nc3cc(-c4ncc[nH]4)ccc3c2[nH]1 [Compound 162] | > 100
19 | CCNCc1nc2c(N)nc3cc(-c4ccn[nH]4)ccc3c2n1CCO [Compound 462, 2-[4-Amino-2-[(ethylamino)methyl]-7-(1H-pyrazol-5-yl)-1H-imidazo[4,5-c]quinolin-1-yl]ethan-1-ol] | > 100
20 | CCn1c(CN2CCCC2=O)nc2c(N)nc3cc(-c4cccs4)ccc3c21 [Compound 463, 1-{[4-amino-1-ethyl-7-(thiophen-2-yl)-1H-imidazo[4,5-c]quinolin-2-yl]methyl}pyrrolidin-2-one] | > 100
21 | CCNCc1nc2c(N)nc3cc(-c4ccn[nH]4)ccc3c2n1CC [Compound 464, 1-ethyl-2-[(ethylamino)methyl]-7-(1H-pyrazol-5-yl)-1H-imidazo[4,5-c]quinolin-4-amine] | > 100
22 | CCn1c(CN2CCCC2=O)nc2c(N)nc3cc(-n4cccn4)ccc3c21 [Compound 465, 1-{[4-amino-1-ethyl-7-(1H-pyrazol-1-yl)-1H-imidazo[4,5-c]quinolin-2-yl]methyl}pyrrolidin-2-one] | > 100
23 | CCn1c(CN2CCCC2=O)nc2c(N)nc3cc(-c4ccn[nH]4)ccc3c21 [Compound 466, 1-{[4-amino-1-ethyl-7-(1H-pyrazol-5-yl)-1H-imidazo[4,5-c]quinolin-2-yl]methyl}pyrrolidin-2-one] | > 100
24 | CCNCc1nc2c(N)nc3cc(-n4cccn4)ccc3c2n1CC [Compound 467, 1-ethyl-2-((ethylamino)methyl)-7-(1H-pyrazol-1-yl)-1H-imidazo[4,5-c]quinolin-4-amine] | > 100
25 | CCNCc1nc2c(N)nc3cc(-c4cccs4)ccc3c2n1CC [Compound 468, 1-ethyl-2-[(ethylamino)methyl]-7-(thiophen-2-yl)-1H-imidazo[4,5-c]quinolin-4-amine] | > 100

Results, then the molecule that gave them:

Row | EC50 [µM] | Compound
26 | > 100 | CCNCc1nc2c(N)nc3cc(-c4cc[nH]n4)ccc3c2[nH]1 [Compound 101, 2-[(Ethylamino)methyl]-7-(1H-pyrazol-3-yl)-1H-imidazo[4,5-c]quinolin-4-amine hydrochloride]
27 | > 100 | CCC(=O)N(C)Cc1nc2c(N)nc3cc(-c4cc[nH]n4)ccc3c2[nH]1 [Compound 122]
28 | > 100 | CCN(Cc1nc2c(N)nc3cc(-c4cc[nH]n4)ccc3c2[nH]1)S(C)(=O)=O [Compound 124]
29 | > 100 | CCC(=O)N(CC)Cc1nc2c(N)nc3cc(-c4cc[nH]n4)ccc3c2[nH]1 [Compound 125]
30 | > 100 | CCN(Cc1nc2c(N)nc3cc(-c4cc[nH]n4)ccc3c2[nH]1)C(=O)NC [Compound 128]
31 | > 100 | CC(=O)N(C)Cc1nc2c(N)nc3cc(-c4cc[nH]n4)ccc3c2[nH]1 [Compound 129]
32 | > 100 | CC(=O)N(Cc1nc2c(N)nc3cc(-c4cc[nH]n4)ccc3c2[nH]1)C(C)C [Compound 140]
33 | > 100 | CCN(Cc1nc2c(N)nc3cc(-c4cc[nH]n4)ccc3c2[nH]1)CC(C)C [Compound 453, 2-{[ethyl(2-methylpropyl)amino]methyl}-7-(1H-pyrazol-3-yl)-1H-imidazo[4,5-c]quinolin-4-amine]
34 | > 100 | CCN(CC)C(=O)N(CC)Cc1nc2c(N)nc3cc(-c4cc[nH]n4)ccc3c2[nH]1 [Compound 454, 1-{[4-amino-7-(1H-pyrazol-3-yl)-1H-imidazo[4,5-c]quinolin-2-yl]methyl}-1,3,3-triethylurea]
35 | > 100 | CCN(Cc1nc2c(N)nc3cc(-c4cc[nH]n4)ccc3c2[nH]1)C(=O)N1CCOCC1 [Compound 455, N-{[4-amino-7-(1H-pyrazol-3-yl)-1H-imidazo[4,5-c]quinolin-2-yl]methyl}-N-ethylmorpholine-4-carboxamide]
36 | > 100 | CCN(Cc1nc2c(N)nc3cc(-c4cc[nH]n4)ccc3c2[nH]1)C(=O)NC(C)(C)C [Compound 456, 1-{[4-amino-7-(1H-pyrazol-3-yl)-1H-imidazo[4,5-c]quinolin-2-yl]methyl}-3-tert-butyl-1-ethylurea]
37 | > 100 | CCNC(=O)N(CC)Cc1nc2c(N)nc3cc(-c4cc[nH]n4)ccc3c2[nH]1 [Compound 457, 1-{[4-amino-7-(1H-pyrazol-3-yl)-1H-imidazo[4,5-c]quinolin-2-yl]methyl}-1,3-diethylurea]
38 | > 100 | CCN(Cc1nc2c(N)nc3cc(-c4cc[nH]n4)ccc3c2[nH]1)S(=O)(=O)N(C)C [Compound 458, 2-{[(dimethylsulfamoyl)(ethyl)amino]methyl}-7-(1H-pyrazol-3-yl)-1H-imidazo[4,5-c]quinolin-4-amine]
39 | > 100 | CCN(Cc1nc2c(N)nc3cc(-c4cc[nH]n4)ccc3c2[nH]1)S(=O)(=O)C(C)C [Compound 459, N-{[4-amino-7-(1H-pyrazol-3-yl)-1H-imidazo[4,5-c]quinolin-2-yl]methyl}-N-ethylpropane-2-sulfonamide]
40 | > 100 | CCCS(=O)(=O)N(CC)Cc1nc2c(N)nc3cc(-c4cc[nH]n4)ccc3c2[nH]1 [Compound 460, N-{[4-amino-7-(1H-pyrazol-3-yl)-1H-imidazo[4,5-c]quinolin-2-yl]methyl}-N-ethylpropane-1-sulfonamide]
